Assays:
[1] = target: T1, WzmWzt (full-length) (Aquifex aeolicus, UniProt O67181); assay: NADH-coupled ATPase assay; assay type: biochemical; conditions: 1 mM ATP, 27 °C; CBD ligand, non-physiologically high concentration
T1 construct: gene abcT4; full-length wild-type transporter, Wzm2Wzt2; His-tagged (WzmWzt-His), purified as previously described; in lipid nanodiscs or DDM micelles; with O antigen ABC transporter permease Wzm (Transport permease protein)

[2] = target: T2, Wzt-CBD (also Wzt-CBM, WztC) (Aquifex aeolicus, UniProt O67181); assay: isothermal titration calorimetry; assay type: binding; conditions: 50 mM HEPES pH 8.0, 25 °C; 1:1 per CBD monomer; read-out: affinity
T2 construct: gene abcT4; N-terminal His6-TEV tag removed; E. coli C43(DE3); domain-swapped dimer
T2 sequence (O67181 entry or part of it): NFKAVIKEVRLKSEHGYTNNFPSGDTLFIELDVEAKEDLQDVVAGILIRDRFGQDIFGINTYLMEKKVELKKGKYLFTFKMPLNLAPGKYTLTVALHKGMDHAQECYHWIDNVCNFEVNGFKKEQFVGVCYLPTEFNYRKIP

T1 sequence (O67181 entry or part of it): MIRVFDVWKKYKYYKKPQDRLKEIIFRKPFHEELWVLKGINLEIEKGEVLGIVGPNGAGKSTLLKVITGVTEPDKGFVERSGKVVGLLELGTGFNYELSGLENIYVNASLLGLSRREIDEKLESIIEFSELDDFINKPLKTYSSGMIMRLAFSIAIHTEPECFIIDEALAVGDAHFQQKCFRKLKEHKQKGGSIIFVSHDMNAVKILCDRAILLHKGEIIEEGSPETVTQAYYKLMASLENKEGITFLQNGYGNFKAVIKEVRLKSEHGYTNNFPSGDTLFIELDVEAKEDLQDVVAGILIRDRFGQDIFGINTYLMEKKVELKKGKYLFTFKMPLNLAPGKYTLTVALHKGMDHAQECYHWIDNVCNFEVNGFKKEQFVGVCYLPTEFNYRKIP
T1 sequence (O67182 entry or part of it, further chain): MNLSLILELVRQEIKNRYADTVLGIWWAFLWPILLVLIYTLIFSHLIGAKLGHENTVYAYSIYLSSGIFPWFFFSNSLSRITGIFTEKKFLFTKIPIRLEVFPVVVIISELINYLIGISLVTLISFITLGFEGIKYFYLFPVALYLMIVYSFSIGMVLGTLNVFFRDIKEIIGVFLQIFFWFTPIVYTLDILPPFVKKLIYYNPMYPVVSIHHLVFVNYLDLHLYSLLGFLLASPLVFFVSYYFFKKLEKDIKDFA

- % increase in ATPase activity at high concentration [1]: ~ 50%
- Kd [2]: ~234 µM
SMILES: CO[C@H]1[C@H](O)[C@@H](CO)OC(O)[C@H]1O (stereo partly drawn) [3-O-methyl-D-mannose]

— PMC9445017, “Molecular basis for polysaccharide recognition and modulated ATP hydrolysis by the O antigen ABC transporter” (Nature Communications, 2022)
